In ChEMBL document CHEMBL2331448, “Optimization of potent and selective dual mTORC1 and mTORC2 inhibitors: the discovery of AZD8055 and AZD2014” (Bioorg Med Chem Lett, 2013):
Each block holds one compound with its values, some of them ahead of it.

Assays:
[1] = Lipophilicity, log D of the compound; assay type: physicochemical; conditions: octanol/water
[2] = Clearance in human hepatocytes assessed per 10^6 cells; assay type: ADME, cell-based, Hepatocyte; conditions: read-out: CLH
[3] = tested on: MDR1; test: Apparent permeability from basolateral to apical side of MDCK2 cells expressing human MDR1 at 10 uM; assay type: ADME, cell-based, Canis lupus familiaris, MDCK-II; conditions: dog, MDCK-MDR1
[4] = tested on: MDR1; test: Apparent permeability from apical to basolateral side of MDCK2 cells expressing human MDR1 at 10 uM; assay type: ADME, cell-based, Canis lupus familiaris, MDCK-II; conditions: dog, MDCK-MDR1
[5] = Clearance in rat at 4 umol/kg, iv; assay type: ADME, organism-based; conditions: in vivo
[6] = Clearance in CD1 mouse at 10 umol/kg, iv; assay type: ADME, organism-based; conditions: in vivo
[7] = Oral bioavailability in CD1 mouse at 20 umol/kg; assay type: ADME, organism-based; conditions: in vivo
[8] = Oral bioavailability in rat; conditions: in vivo
[9] = Oral bioavailability in rat at 6 umol/kg; assay type: ADME, organism-based; conditions: in vivo
[10] = Clearance in rat at 1 umol/kg, iv; assay type: ADME, organism-based; conditions: in vivo

- hepatocyte CLint [2]: 33.2 µL/min/1e6 cells
Structure (SMILES): COc1ccc(-c2ccc3c(N4CCOC[C@@H]4C)nc(N4CCOC[C@@H]4C)nc3n2)cc1C(N)=O

- hepatocyte CLint [2]: 4.3 µL/min/1e6 cells
Structure (SMILES): COc1ccc(-c2ccc3c(N4CCOC[C@@H]4C)nc(N4CCOC[C@@H]4C)nc3n2)cc1C(=O)N(C)C

- Papp B→A at 10 µM [3]: 16.6 ×10⁻⁶ cm/s
- Papp A→B at 10 µM [4]: 45.3 ×10⁻⁶ cm/s
Structure (SMILES): COc1ccc(-c2ccc3c(N4CCOCC4)nc(N4C[C@@H](C)O[C@@H](C)C4)nc3n2)cc1CNCCO

- clearance [5]: 36.6 mL/min/kg
- clearance [6]: 42.8 mL/min/kg
- bioavailability [7]: 81%
- hepatocyte CLint [2]: 36.4 µL/min/1e6 cells
- logD [1]: 3.23
- bioavailability [8]: 12%
Structure (SMILES): COc1ccc(-c2ccc3c(N4CCOC[C@@H]4C)nc(N4CCOC[C@@H]4C)nc3n2)cc1CO [AZD-8055]

The next lines start with the compound.

Structure (SMILES): C[C@@H]1CN(c2nc(N3CCOC[C@@H]3C)c3ncc(-c4ccccc4)nc3n2)C[C@H](C)O1
- logD [1]: > 4

Structure (SMILES): COc1ccc(-c2ccc3c(N4CCOC[C@@H]4C)nc(N4CCOC[C@@H]4C)nc3n2)cc1C(C)O (some centres undefined)
- hepatocyte CLint [2]: 37.8 µL/min/1e6 cells

Structure (SMILES): CNC(=O)c1cc(-c2ccc3c(N4CCOC[C@@H]4C)nc(N4CCOC[C@@H]4C)nc3n2)ccc1OC
- hepatocyte CLint [2]: 14.3 µL/min/1e6 cells

Structure (SMILES): CNC(=O)c1cc(-c2ccc3c(N4CCOC[C@@H]4C)nc(N4CCOC[C@@H]4C)nc3n2)ccc1OC(F)F
- hepatocyte CLint [2]: 14.9 µL/min/1e6 cells

Structure (SMILES): C[C@H]1COCCN1c1nc(N2CCOC[C@@H]2C)c2ccc(-c3ccc4nc[nH]c(=O)c4c3)nc2n1
- hepatocyte CLint [2]: 176 µL/min/1e6 cells

Structure (SMILES): C[C@H]1COCCN1c1nc(N2CCOC[C@@H]2C)c2ccc(-c3cccc(C(=O)NCCO)c3)nc2n1
- hepatocyte CLint [2]: < 5.4 µL/min/1e6 cells

Structure (SMILES): C[C@@H]1CN(c2nc(N3CCOC[C@@H]3C)c3ccc(-c4ccccc4)nc3n2)C[C@H](C)O1
- logD [1]: 3.75

Structure (SMILES): COc1ccc(-c2ccc3c(N4CCOCC4)nc(N4C[C@@H](C)O[C@@H](C)C4)nc3n2)cc1CO [Ku-0063794]
- Papp B→A at 10 µM [3]: 15 ×10⁻⁶ cm/s
- Papp A→B at 10 µM [4]: 2.6 ×10⁻⁶ cm/s
- bioavailability [9]: 33%
- clearance [10]: 35.8 mL/min/kg
- clearance [6]: 3.1 mL/min/kg
- bioavailability [7]: 61%

Structure (SMILES): CNC(=O)c1cccc(-c2ccc3c(N4CCOC[C@@H]4C)nc(N4CCOC[C@@H]4C)nc3n2)c1 [VISTUSERTIB]
- clearance [5]: 12.6 mL/min/kg
- clearance [6]: 10.4 mL/min/kg
- bioavailability [7]: > 100%
- hepatocyte CLint [2]: < 4.2 µL/min/1e6 cells
- logD [1]: 3.16
- bioavailability [8]: 40%
